Assay results as given in patent US10722495B2, “Cyanoindazole compounds and uses thereof” (Incyte Corporation, priority 2017, dated 2020).

target: HPK1 (Homo sapiens (Human), UniProt Q92918); experiment: HPK1 Kinase Binding Assay; conditions: active HPK1 (SignalChem M23-11G), tracer 222, LanthaScreen Eu-Anti GST antibody, one hour incubation at 25° C.
Protocol: Example A. HPK1 Kinase Binding Assay
A stock solution of 1 mM test compound was prepared in DMSO. The compound plate was prepared by 3-fold and 11-point serial dilutions. 0.1 μL of the compound in DMSO was transferred from the compound plate to the white 384 well polystyrene plates. The assay buffer contained 50 mM HEPES, pH 7.5, 0.01% Tween-20, 5 mM MgCl2, 0.01% BSA, and 5 mM DTT. 5 μl of 4 nM active HPK1 (SignalChem M23-11G) prepared in the buffer was added to the plate. The enzyme concentration given was based on the given stock concentration reported by the vender. 5 μl of 18 nM tracer 222 (ThermoFisher PV6121) and 4 nM LanthaScreen Eu-Anti GST antibody (ThermoFisher PV5595) were added. After one hour incubation at 25° C., the plates were read on a PHERAstar FS plate reader (BMG Labtech). Ki values were determined.

Chain of HPK1 (Q92918 1-346): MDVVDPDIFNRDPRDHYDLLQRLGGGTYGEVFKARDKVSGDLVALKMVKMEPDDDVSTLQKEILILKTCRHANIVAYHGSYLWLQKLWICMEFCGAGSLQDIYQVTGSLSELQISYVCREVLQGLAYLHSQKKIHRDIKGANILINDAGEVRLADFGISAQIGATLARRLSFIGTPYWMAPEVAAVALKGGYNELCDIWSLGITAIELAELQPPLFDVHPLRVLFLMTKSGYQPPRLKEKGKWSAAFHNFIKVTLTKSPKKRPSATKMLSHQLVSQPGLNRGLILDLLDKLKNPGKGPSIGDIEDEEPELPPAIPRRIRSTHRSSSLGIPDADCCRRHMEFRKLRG

| Structure (SMILES) | Ki |
| --- | --- |
| CNCc1cc(C)c(-c2cc3c(-c4cnn(CC(F)(F)F)c4)n[nH]c3cc2C#N)c(F)c1 [Example 3, 5-(2-Fluoro-6-methyl-4-((methylamino)methyl)phenyl)-3-(1-(2,2,2-trifluoroethyl)-1H-pyrazol-4-yl)-1H-indazole-6-carbonitrile] | ≤ 100 nM |
| CNCc1cc(C)c(-c2cc3c(-c4cnn(-c5ccccc5Cl)c4)n[nH]c3cc2C#N)c(F)c1 [Example 5, 3-(1-(2-Chlorophenyl)-1H-pyrazol-4-yl)-5-(2-fluoro-6-methyl-4-((methylamino)methyl)phenyl)-1H-indazole-6-carbonitrile] | ≤ 100 nM |
| CNCc1cc(C)c(-c2cc3c(-c4cnn(C(C)C)c4)n[nH]c3cc2C#N)c(F)c1 [Example 6, 5-(2-Fluoro-6-methyl-4-((methylamino)methyl)phenyl)-3-(1-isopropyl-1H-pyrazol-4-yl)-1H-indazole-6-carbonitrile] | ≤ 100 nM |
| CNCc1cc(C)c(-c2cc3c(-c4ccc(C(=O)NC)cc4)n[nH]c3cc2C#N)c(F)c1 [Example 8, 4-(6-Cyano-5-(2-fluoro-6-methyl-4-((methylamino)methyl)phenyl)-1H-indazol-3-yl)-N-methylbenzamide] | ≤ 100 nM |
| CNCc1cc(C)c(-c2cc3c(-c4ccc(C(=O)N(C)C)cc4)n[nH]c3cc2C#N)c(F)c1 [Example 9, 4-(6-Cyano-5-(2-fluoro-6-methyl-4-((methylamino)methyl)phenyl)-1H-indazol-3-yl)-N,N-dimethylbenzamide] | ≤ 100 nM |
| CNCc1cc(C)c(-c2cc3c(-c4ccc(NC(C)=O)cc4)n[nH]c3cc2C#N)c(F)c1 [Example 10, N-(4-(6-Cyano-5-(2-fluoro-6-methyl-4-((methylamino)methyl)phenyl)-1H-indazol-3-yl)phenyl)acetamide] | ≤ 100 nM |
| CNCc1cc(C)c(-c2cc3c(-c4ccc(C(=O)NC)c(F)c4)n[nH]c3cc2C#N)c(F)c1 [Example 17, 4-(6-Cyano-5-(2-fluoro-6-methyl-4-((methylamino)methyl)phenyl)-1H-indazol-3-yl)-2-fluoro-N-methylbenzamide] | ≤ 100 nM |
| CNCc1cc(C)c(-c2cc3c(-c4ccc(C(C)(C)C#N)cc4)n[nH]c3cc2C#N)c(F)c1 [Example 19, 3-(4-(2-Cyanopropan-2-yl)phenyl)-5-(2-fluoro-6-methyl-4-((methylamino)methyl)phenyl)-1H-indazole-6-carbonitrile] | ≤ 100 nM |
| CNCc1cc(C)c(-c2cc3c(-c4ccc(C(=O)N(C)C)c(F)c4)n[nH]c3cc2C#N)c(F)c1 [Example 21, 4-(6-Cyano-5-(2-fluoro-6-methyl-4-((methylamino)methyl)phenyl)-1H-indazol-3-yl)-2-fluoro-N,N-dimethylbenzamide] | ≤ 100 nM |
| CNCc1cc(C)c(-c2cc3c(-c4ccc(C(=O)NC(C)C)cc4Cl)n[nH]c3cc2C#N)c(F)c1 [Example 22, 3-Chloro-4-(6-cyano-5-(2-fluoro-6-methyl-4-((methylamino)methyl)phenyl)-1H-indazol-3-yl)-N-isopropylbenzamide] | ≤ 100 nM |
| CNCc1cc(C)c(-c2cc3c(-c4ccc(S(C)(=O)=O)c(F)c4)n[nH]c3cc2C#N)c(F)c1 [Example 23, 3-(3-Fluoro-4-(methylsulfonyl)phenyl)-5-(2-fluoro-6-methyl-4-((methylamino)methyl)phenyl)-1H-indazole-6-carbonitrile] | ≤ 100 nM |
| CNCc1cc(C)c(-c2cc3c(-c4ccc(S(C)(=O)=O)cc4Cl)n[nH]c3cc2C#N)c(F)c1 [Example 24, 3-(2-Chloro-4-(methylsulfonyl)phenyl)-5-(2-fluoro-6-methyl-4-((methylamino)methyl)phenyl)-1H-indazole-6-carbonitrile] | ≤ 100 nM |
| CNCc1cc(C)c(-c2cc3c(-c4ccc(S(=O)(=O)C(C)C)cc4)n[nH]c3cc2C#N)c(F)c1 [Example 25, 5-(2-Fluoro-6-methyl-4-((methylamino)methyl)phenyl)-3-(4-(isopropylsulfonyl)phenyl)-1H-indazole-6-carbonitrile] | ≤ 100 nM |

Next, values leading:

| Ki | Structure (SMILES) |
| --- | --- |
| ≤ 100 nM | CCn1cc(-c2n[nH]c3cc(C#N)c(-c4c(C)cc(CNC)cc4F)cc23)cn1 [Example 1, 3-(1-Ethyl-1H-pyrazol-4-yl)-5-(2-fluoro-6-methyl-4-((methylamino)methyl)phenyl)-1H-indazole-6-carbonitrile] |
| ≤ 100 nM | CNCc1cc(C)c(-c2cc3c(-c4cnn(C5CC5)c4)n[nH]c3cc2C#N)c(F)c1 [Example 2, 3-(1-Cyclopropyl-1H-pyrazol-4-yl)-5-(2-fluoro-6-methyl-4-((methylamino)methyl)phenyl)-1H-indazole-6-carbonitrile] |
| ≤ 100 nM | CNCc1cc(C)c(-c2cc3c(-c4cn[nH]c4)n[nH]c3cc2C#N)c(F)c1 [Example 4, 5-(2-Fluoro-6-methyl-4-((methylamino)methyl)phenyl)-3-(1H-pyrazol-4-yl)-1H-indazole-6-carbonitrile] |
| ≤ 100 nM | CNCc1cc(C)c(-c2cc3c(-c4ccc(CO)cc4)n[nH]c3cc2C#N)c(F)c1 [Example 7, 5-(2-Fluoro-6-methyl-4-((methylamino)methyl)phenyl)-3-(4-(hydroxymethyl)phenyl)-1H-indazole-6-carbonitrile] |
| ≤ 100 nM | CNCc1cc(C)c(-c2cc3c(-c4ccc(C)cc4)n[nH]c3cc2C#N)c(F)c1 [Example 11, 5-(2-Fluoro-6-methyl-4-((methylamino)methyl)phenyl)-3-p-tolyl-1H-indazole-6-carbonitrile] |
| ≤ 100 nM | CNCc1cc(C)c(-c2cc3c(-c4cccc(OC)c4)n[nH]c3cc2C#N)c(F)c1 [Example 12, 5-(2-Fluoro-6-methyl-4-((methylamino)methyl)phenyl)-3-(3-methoxyphenyl)-1H-indazole-6-carbonitrile] |
| ≤ 100 nM | CNCc1cc(C)c(-c2cc3c(-c4ccc(OC)cc4)n[nH]c3cc2C#N)c(F)c1 [Example 13, 5-(2-Fluoro-6-methyl-4-((methylamino)methyl)phenyl)-3-(4-methoxyphenyl)-1H-indazole-6-carbonitrile] |
| ≤ 100 nM | CNCc1cc(C)c(-c2cc3c(-c4ccc(C(F)(F)F)cc4)n[nH]c3cc2C#N)c(F)c1 [Example 14, 5-(2-Fluoro-6-methyl-4-((methylamino)methyl)phenyl)-3-(4-(trifluoromethyl)phenyl)-1H-indazole-6-carbonitrile] |
| ≤ 100 nM | CNCc1cc(C)c(-c2cc3c(-c4ccc(C5CC5)cc4)n[nH]c3cc2C#N)c(F)c1 [Example 15, 3-(4-Cyclopropylphenyl)-5-(2-fluoro-6-methyl-4-((methylamino)methyl)phenyl)-1H-indazole-6-carbonitrile] |
| ≤ 100 nM | CNCc1cc(C)c(-c2cc3c(-c4ccc(CC#N)cc4)n[nH]c3cc2C#N)c(F)c1 [Example 16, 3-(4-(Cyanomethyl)phenyl)-5-(2-fluoro-6-methyl-4-((methylamino)methyl)phenyl)-1H-indazole-6-carbonitrile] |
| ≤ 100 nM | CNCc1cc(C)c(-c2cc3c(-c4ccc(S(C)(=O)=O)cc4)n[nH]c3cc2C#N)c(F)c1 [Example 18, 5-(2-Fluoro-6-methyl-4-((methylamino)methyl)phenyl)-3-(4-(methylsulfonyl)phenyl)-1H-indazole-6-carbonitrile] |
| ≤ 100 nM | CNCc1cc(C)c(-c2cc3c(-c4ccc(C5(C#N)CC5)cc4)n[nH]c3cc2C#N)c(F)c1 [Example 20, 3-(4-(1-Cyanocyclopropyl)phenyl)-5-(2-fluoro-6-methyl-4-((methylamino)methyl)phenyl)-1H-indazole-6-carbonitrile] |
| ≤ 100 nM | CNCc1cc(C)c(-c2cc3c(-c4cnn(C)c4)n[nH]c3cc2C#N)c(F)c1 [Example 26, 5-(2-Fluoro-6-methyl-4-((methylamino)methyl)phenyl)-3-(1-methyl-1H-pyrazol-4-yl)-1H-indazole-6-carbonitrile] |
| ≤ 100 nM | CNCc1cc(C)c(-c2cc3c(-c4cnc(N5CCN(C)CC5)nc4)n[nH]c3cc2C#N)c(F)c1 [Example 27, 5-(2-Fluoro-6-methyl-4-((methylamino)methyl)phenyl)-3-(2-(4-methylpiperazin-1-yl)pyrimidin-5-yl)-1H-indazole-6-carbonitrile] |
| ≤ 100 nM | CNCc1cc(C)c(-c2cc3c(-c4ccc(N5CCOCC5)nc4)n[nH]c3cc2C#N)c(F)c1 [Example 28, 5-(2-Fluoro-6-methyl-4-((methylamino)methyl)phenyl)-3-(6-morpholinopyridin-3-yl)-1H-indazole-6-carbonitrile] |
| ≤ 100 nM | CNCc1cc(C)c(-c2cc3c(-c4ccc(NC(C)=O)nc4)n[nH]c3cc2C#N)c(F)c1 [Example 29, N-(5-(6-Cyano-5-(2-fluoro-6-methyl-4-((methylamino)methyl)phenyl)-1H-indazol-3-yl)pyridin-2-yl)acetamide] |
| ≤ 100 nM | CNCc1cc(C)c(-c2cc3c(-c4ccc(N5CCN(C(C)=O)CC5)nc4)n[nH]c3cc2C#N)c(F)c1 [Example 30, 3-(6-(4-Acetylpiperazin-1-yl)pyridin-3-yl)-5-(2-fluoro-6-methyl-4-((methylamino)methyl)phenyl)-1H-indazole-6-carbonitrile] |
| ≤ 100 nM | CNCc1cc(C)c(-c2cc3c(-c4ccnc(C)c4)n[nH]c3cc2C#N)c(F)c1 [Example 31, 5-(2-Fluoro-6-methyl-4-((methylamino)methyl)phenyl)-3-(2-methylpyridin-4-yl)-1H-indazole-6-carbonitrile] |
| ≤ 100 nM | CNCc1cc(C)c(-c2cc3c(-c4ccc(C5CCOCC5)nc4)n[nH]c3cc2C#N)c(F)c1 [Example 32, 5-(2-Fluoro-6-methyl-4-((methylamino)methyl)phenyl)-3-(6-(tetrahydro-2H-pyran-4-yl)pyridin-3-yl)-1H-indazole-6-carbonitrile] |
